Experimental findings from a melting point compilation (Tetko et al.; mined from patent text by program, amines drawn as free bases though some values may be those of a salt) are described below.

SMILES strings stand for the structures. A value given as a limit tells only on which side of the number the result lay.

As a reminder, the melting point is the temperature of the solid-liquid transition. On to `CCCSc1cc(C(=O)O)cc(S(N)(=O)=O)c1-c1ccccc1`, for which the melting point was 85 to 87 °C.
For `CC(=O)Oc1ccc2nc(C#N)nc(Cl)c2c1` the value was 145 to 147 °C; for `COC(=O)[C@H]1[C@@H](NC(=O)OC(C)(C)C)C(=O)N1Cc1ccc(OC)cc1OC` (relative stereo), 134 to 135 °C; for `CCOC(=O)C1=CCCCC1S(=O)(=O)Nn1cccc1C1CC1` (centres undefined), 95 to 96 °C.
The figure for `CCC1(C)CN(c2c(F)cc3c(=O)c(C(=O)O)cn(C4CC4)c3c2OC)CCC1N` (centres undefined) is 152 to 154 °C; for `CCCCCCCCCC[C@H](NP(=O)(c1ccccc1)c1ccccc1)c1ccccc1` it is 95 to 96 °C; for `CC[C@H](CCC(=O)OC(C)(C)C)C(=O)N[C@@H](Cc1ccccc1)C(=O)OC` it is 120 to 121 °C.
The figure for `N#CCCn1ccc(NC(N)=NCC(F)(F)F)n1` is 141 to 142 °C.
Compound `O=c1ccc2cc(OCc3cn(-c4ccccc4Cl)nn3)ccc2o1` returned a melting point of 164 to 166 °C.
The figure for `O=c1cc[nH]c2c(Sc3nc4ccccc4[nH]3)cccc12` is > 240 °C; for `CCCCNc1cccc(-c2ccnc3c(C(=O)c4cccs4)cnn23)c1` it is 87 to 91 °C.
`Cc1cc(C(=O)Nc2cccc(Sc3ccc4nc(NC(=O)C5CC5)cn4n3)c2)n(C)n1` gave a melting point of 251 °C.
For `CC(=O)c1ccc(-c2ccccc2)c(F)c1` the value was 97 to 97.5 °C; for `COc1cc(Nc2nccc(-c3cccc(OCCCN4C(=O)c5ccccc5C4=O)c3)n2)cc(OC)c1OC`, 209 °C; for `CCCCCCCCCCC[C@H](CC(=O)N[C@@H](CO)CCCN)OCc1ccccc1`, 47 to 48 °C.
For `CC(=O)OCC(CCn1cnc2c(=O)[nH]c(N)nc21)COC(C)=O`, the melting point lay in the range of 202 to 205 °C.
Compound `Cc1c(CN(C)C)cc(C(C)(C)CC(C)(C)C)c(O)c1C` had a melting point of 130 to 132 °C.
In turn, `CCOC(=O)c1cnc2c(c(C)nc3cc(C)nn32)c1NCCCN(C)C` displayed a melting point of 73 to 75 °C.
The compound `N#CSCC(=O)N1CCCC1` gave a melting point of 95 to 96 °C.
For `CCOC1CCC(=O)N1S(=O)(=O)C=Cc1ccc(OC)cc1` (centres undefined) the value was 134 to 136 °C.
For `CCOC(=O)CCNC(=O)NC1CCN(c2ccc(C=NNOC(=O)OCC)cc2)C1=O` (centres undefined) the value was 198 to 201 °C.
The figure for `Cc1ccc2cc(NS(C)(=O)=O)ccc2n1` is 151 to 153 °C.
In turn, `CC1(CCC(O)(c2ccccc2)c2ccccc2)CCCCC12OCCO2` (centres undefined) came in with a melting point of 115 to 117 °C.
Regarding `O=C(O)CCCCC(Cc1ccc(F)cc1)C(=O)O` (centres undefined), the melting point was 80 to 81 °C.
Turning to `CC1(C)OC(c2ccc(S(N)(=O)=O)cc2)=C(c2ccc3c(c2)OCO3)C1=O`, the melting point lay within 178 to 179 °C.
For `CCCc1nc2c(N)nc3ccccc3c2n1CC1(C(N)=O)CCC1` the value was 234 to 237 °C.
The figure for `CCOC(=O)C(c1ccc(N)cc1)N(C)C(C)C` (centres undefined) is 70 to 71 °C.
The figure for `O=C(c1c(F)cccc1F)N1COCN(c2ccc(S(=O)(=O)C(F)F)cc2F)C1=O` is 210 to 213 °C.
Take `CCC(C)n1ccnc1S` (centres undefined): the melting point fell in the range of 108 to 121 °C.
For `CCOc1ccc(C)c(N(Cc2ccccc2)C(=O)C(C)(C)Br)c1` the value was 87 to 88 °C; for `CCCCCCc1cc2c(s1)-n1c(C)nnc1CN=C2c1cc(OC)c(OC)c(OC)c1`, 111 to 113 °C; for `O=C(O)c1c(F)ccc([N+](=O)[O-])c1C(F)(F)F`, 190 °C.
On to `COC(=O)C(=NO)c1nc2cccc(OC)c2oc1=O`, for which the melting point was 176 to 178 °C.
For `O=C(O)CCCCCCCCCCSc1nc(-c2ccccc2)c(-c2ccccc2)[nH]1` the value was 193 to 195 °C; for `CCOC(=O)c1ncn2c1CNC(=O)c1sccc1-2`, 263 to 264 °C.
In turn, `CCOC(=O)C1=Cc2c(OC)ccc(OC)c2CC1` displayed a melting point of 74 to 76 °C.
For `O=C1CCC(c2ccc3[nH]c(-c4cccc(C(F)(F)F)c4)cc3c2)=NN1` the value was 215 to 218 °C.
`CCOC(C)Oc1ccc2c(c1C=O)OCO2` (centres undefined) showed a melting point of 48 to 50 °C.
The figure for `CCCCOCCOc1ccc(-c2ccc3c(c2)C=C(C(=O)Nc2ccc(/C(Cc4nccn4CCC)=N/O)cc2)CCN3CC(C)C)cc1` is 154 °C; for `COCCOc1ccc(CCC(=O)NS(=O)(=O)CCC(C)C)c(Oc2ncc(C(F)(F)F)cc2Cl)c1` it is 130 to 132 °C.
`O=C1c2ccccc2C(O)C1Cc1ncc(C(F)(F)F)cc1Cl` (centres undefined) came in with a melting point of 174 to 178 °C.
For the compound `CC(C)c1cc(OCCOCc2ccccc2)cc2c1C(=O)N(CCl)S2(=O)=O`, the melting point is 101 to 102 °C.
`CCCCOc1c(NC(C)(C)CC)c(=O)c1=O`: the melting point lay within 56 to 57 °C.
The figure for `NC(=O)c1cccc(-c2ccc(F)c3cc(Cc4cc(F)cc(Cl)c4)sc23)c1` is 168 to 169 °C; for `CN(CCOc1ccc(C=C2SC(=O)NC2=O)cc1)c1nc2ccccc2s1` it is 219 °C.
The compound `Cc1nnc2n1-c1sc(C#Cc3ccccc3)cc1C(c1ccccc1Cl)=NC2` yielded a melting point of 215 to 217 °C.
For `CC(C)(C)C(=O)c1c(CC(C)(C)C(=O)O)n(Cc2ccc(Cl)cc2)c2ccc(OCc3ccc4sccc4n3)cc12` the value was 193 to 194 °C.
The figure for `CC(C)(C)C1=NN(c2ccc(S(=O)(=O)O)cc2)C(c2ccc(Cl)cc2)C1` (centres undefined) is 92.5 °C.
Consider `CCOC(=O)c1cc(C(=O)c2ccc(C)cc2)n(C)c1C`, for which the melting point is 98 to 100 °C.
For `O[C@@H]1COC[C@H]1Oc1nc(N2CCNCC2)nc2ccccc12` (relative stereo) the value was 148 to 154 °C; for `CCCC(=O)OC(C)OC(=O)NC1(C(=O)O)CC1` (centres undefined), 90.4 to 93.4 °C; for `CCc1cnc2c(NC(=O)c3c(Cl)cccc3Cl)cccc2c1CCC(=O)O`, 236 to 237 °C.
On to `Cc1cn(CCC(=O)O)c(=O)[nH]c1=O`, for which the melting point lay in the range of 118 to 121 °C.
The figure for `O=c1c(Cl)c(OCc2ccc(Cl)cc2)cnn1CCCBr` is 83 to 87 °C.
For `CCN(CC)CCNC(=O)c1cc(Cl)c(N)cc1OCC(=O)Cc1ccccc1` the value was 138 to 139 °C; for `CCCc1nc2c(N)nc3cc(-c4ccccc4)ccc3c2n1CCCC(C)=NOC`, 191 to 192 °C; for `CC(C)(C)CC(C)(C)NCC(O)COc1ccccc1C(=O)Nc1cccc2[nH]ccc12` (centres undefined), 140 °C.
For `CCC(CC)C(c1ccnn1-c1ccccc1)N(C)S(=O)(=O)c1ccc(Cl)cc1` (centres undefined) the value was 86.5 to 89 °C; for `OC1(CNc2ccnc3cc(Cl)ccc23)CCCCC1`, 205 to 207 °C.
In the case of `COC(=O)C[C@H]1C[C@@H](CCc2c(-c3ccc(F)cc3)c(-c3ccc(F)cc3)cn2C(C)C)OC(C)(C)O1`, the melting point lay within 55 to 57 °C.
For `CN(C)[C@H]1CCC[C@H]1C(=O)O` (relative stereo) the value was 82 to 84 °C.
The figure for `CC(=O)Oc1c(C(C)(C)C)cc(O)c(C=O)c1C(C)(C)C` is 79 °C; for `CNC(=O)C1CC2(CCN(CCCC(=O)c3ccc(F)cc3)C2)c2ccc(Cl)cc21` (centres undefined) it is 151 to 153 °C; for `COc1cccc2c1CCCC2N1CCN(C)CC1` (centres undefined) it is 69 to 71 °C.
